For this test, the system named is P388/ADR leukemia. Put plainly: NCI tumour cell line growth inhibition, 48 h.

“And” between values parts separate entries of the source, which are not always exact repeats. Identical values can stand only once.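 Tested at 5 concentrations; 48 h exposure; 96-well plates; endpoints linearly interpolated, else capped at highest concentration. GI50 marks 50% less growth. TGI: total growth inhibition.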

For the molecule `N[C@@H](Cc1ccc(N(CCCl)CCCl)cc1)C(=O)O`, the GI50 was 2.59 µM; the TGI was 37.7 µM and 76.3 µM.
`COc1nc(C(Cl)(Cl)Cl)c(Cl)c(OC)c1Cl` gave a TGI of 85.9 µM.

(Values after PubChem BioAssay (NCI).)
